Assay results: ChEMBL document CHEMBL4004877, “Synthesis and biological evaluation of chalcone, dihydrochalcone, and 1,3-diarylpropane analogs as anti-inflammatory agents” (Bioorg Med Chem Lett, 2017)
In brackets after ≈: the same amount, converted by molar mass.

What was measured:
[1] = system: RAW264.7; assay: Antiinflammatory activity in mouse RAW264.7 cells assessed as inhibition of LPS induced iNOS-dependent nitric oxide production at 1.25 ug/ml after 24 hrs by Griess assay relative to control; type: functional; conditions: RAW264.7, 24 h
[2] = system: RAW264.7; assay: Antiinflammatory activity in mouse RAW264.7 cells assessed as inhibition of LPS induced iNOS-dependent nitric oxide production at 10 ug/ml after 24 hrs by Griess assay relative to control; type: functional; conditions: RAW264.7, 24 h
[3] = Cytotoxicity against LPS-stimulated mouse RAW264.7 cells assessed as cell viability at 10 ug/ml after 24 hrs by MTT assay relative to control; type: cell-based; conditions: LPS-stimulated RAW264.7 cells, read-out: Activity
[4] = system: RAW264.7; assay: Antiinflammatory activity in mouse RAW264.7 cells assessed as inhibition of LPS induced iNOS-dependent nitric oxide production at 5 ug/ml after 24 hrs by Griess assay relative to control; type: functional; conditions: RAW264.7, 24 h
[5] = Cytotoxicity against LPS-stimulated mouse RAW264.7 cells assessed as cell viability at 2.5 ug/ml after 24 hrs by MTT assay relative to control; type: cell-based; conditions: LPS-stimulated RAW264.7 cells, read-out: Activity
[6] = system: RAW264.7; assay: Antiinflammatory activity in mouse RAW264.7 cells assessed as inhibition of LPS induced iNOS-dependent nitric oxide production at 2.5 ug/ml after 24 hrs by Griess assay relative to control; type: functional; conditions: RAW264.7, 24 h
[7] = Cytotoxicity against LPS-stimulated mouse RAW264.7 cells assessed as cell viability at 5 ug/ml after 24 hrs by MTT assay relative to control; type: cell-based; conditions: LPS-stimulated RAW264.7 cells, read-out: Activity
[8] = system: RAW264.7; assay: Antiinflammatory activity in mouse RAW264.7 cells assessed as inhibition of LPS induced iNOS-dependent nitric oxide production after 24 hrs by Griess assay; type: functional, cell-based; conditions: RAW264.7, 24 h
[9] = Cytotoxicity against LPS-stimulated mouse RAW264.7 cells assessed as cell viability at 1.25 ug/ml after 24 hrs by MTT assay relative to control; type: cell-based; conditions: LPS-stimulated RAW264.7 cells, read-out: Activity

Compound	inhibition at 1.25 µg/mL [1]	inhibition at 10 µg/mL [2]	viability at 24 h, 10 ug/ml [3]	inhibition at 5 µg/mL [4]	viability at 24 h, 2.5 ug/ml [5]	inhibition at 2.5 µg/mL [6]	viability at 24 h, 5 ug/ml [7]	IC50 [8]	viability at 24 h, 1.25 ug/ml [9]
COc1ccc(CCCc2cccc(O)c2)cc1	22.2%	55.9%	76.2%	40.1%	99.2%	20.5%	94.1%	7.72 µg/mL (≈ 31.9 µM)	99.9%
COc1ccc(C(=O)CCc2cc(OC)ccc2OC)c(O)c1	6.6%	14%	92.4%	11.9%	96.2%	8.2%	91.1%	> 10 µg/mL	96.4%
COc1ccc(C(=O)CCc2cccc(OC)c2OC)c(O)c1	0.8%	18.6%	92.8%	5.4%	95.2%	2.8%	92.7%	> 10 µg/mL	96.6%
COc1ccc(C(=O)CCc2ccc(OC)cc2OC)c(O)c1	3%	21.6%	83.4%	9%	96.2%	3.4%	87.4%	> 10 µg/mL	97.8%
COc1ccc(C(=O)CCc2ccc3c(c2)OCO3)c(OC)c1	0.2%	9.8%	81%	6.6%	87.2%	4.5%	83.2%	> 10 µg/mL	87.4%
COc1ccc(CCCc2ccc(OC)c(OC)c2OC)c(O)c1	33.3%	68.1%	36.7%	56.8%	95.5%	34.9%	84.5%	4.03 µg/mL (≈ 12.1 µM)	96.3%
COc1cc(C(=O)CCc2cccc(OC)c2OC)ccc1O	0.1%	33.3%	90.5%	15.9%	94.5%	4.4%	91.1%	> 10 µg/mL	94.1%
COc1ccc(CCCc2ccc(OC)cc2OC)c(O)c1	10.4%	70%	25.8%	35.2%	97.7%	26.9%	91.5%	6.71 µg/mL (≈ 22.2 µM)	100%
COc1cc(CCCc2cccc(O)c2)ccc1O	10.9%	80.4%	76.1%	18.1%	99.5%	15.9%	97.7%	7.13 µg/mL (≈ 27.6 µM)	100%
COc1ccc(CCCc2ccc(OC)c(OC)c2)cc1OC	8.4%	52%	94.9%	26.1%	97.4%	12.7%	95.6%	9.47 µg/mL (≈ 29.9 µM)	99%
COc1ccc(CCC(=O)c2cccc(O)c2)c(OC)c1	7.9%	52.3%	74.8%	25.4%	88.5%	17.1%	88.8%	9.42 µg/mL (≈ 32.9 µM)	92.1%
COc1cc(CCC(=O)c2cccc(O)c2)ccc1O	5.6%	50.9%	91%	23.2%	98.9%	19.8%	96.1%	9.78 µg/mL (≈ 35.9 µM)	100%
COc1ccc(C(=O)/C=C/c2cc(OC)ccc2OC)c(O)c1	7.4%	26.6%	66.5%	6.1%	93.3%	0.7%	71.1%	> 10 µg/mL	95.4%
COc1ccc(CCC(=O)c2ccc(OC)c(OC)c2)cc1	14.1%	57.2%	90.6%	54.4%	98.6%	32.5%	95.1%	4.35 µg/mL (≈ 14.5 µM)	99.1%
COc1ccc(CCCc2ccc3c(c2)OCO3)c(O)c1	32.6%	85.9%	15.6%	54.1%	95.3%	39.4%	71.4%	4.12 µg/mL (≈ 14.4 µM)	97.5%
COc1ccc(CCCc2cc(OC)ccc2OC)c(O)c1	6.2%	50.2%	42.5%	36.4%	102%	31.7%	98.5%	9.9 µg/mL (≈ 32.7 µM)	102%
COc1ccc(CCCc2cccc(O)c2)cc1OC	13.9%	44.7%	78.8%	15.4%	98.5%	5.4%	94.8%	> 10 µg/mL	99.9%
COc1ccc(/C=C/C(=O)c2cccc(O)c2)cc1OC	1.7%	65.9%	63.9%	3.5%	91%	3.3%	83.8%	8.38 µg/mL (≈ 29.5 µM)	101%
COc1ccc(CCCc2ccc(OC)cc2O)cc1	25.7%	72.5%	73.8%	37.8%	96.8%	30.5%	94.6%	6.37 µg/mL (≈ 23.4 µM)	98.9%
COc1cccc(CCC(=O)c2cccc(O)c2)c1OC	7.5%	47.5%	91.4%	25%	94%	14.1%	93.4%	> 10 µg/mL	96.4%
COc1ccc(OC)c(CCC(=O)c2cccc(O)c2)c1	15.7%	38.5%	93.6%	22.3%	96.8%	18.4%	97.5%	> 10 µg/mL	98.6%
COc1ccc(OC)c(/C=C/C(=O)c2cccc(O)c2)c1	2.8%	77.1%	62.5%	52.4%	72.4%	52.3%	67.3%	2.42 µg/mL (≈ 8.51 µM)	99%
COc1ccc(/C=C/C(=O)c2cccc(O)c2)c(OC)c1	1.6%	53.9%	61.6%	9%	74%	2.3%	63%	9.42 µg/mL (≈ 33.1 µM)	97.7%
COc1cccc(CCCc2cccc(O)c2)c1OC	16.3%	63.9%	69.6%	18.3%	97.4%	18.4%	96.1%	8.09 µg/mL (≈ 29.7 µM)	97.1%
COc1ccc(C(=O)CCc2ccc3c(c2)OCO3)c(O)c1	5.1%	25.9%	94.4%	14.1%	96.8%	10.6%	96.2%	> 10 µg/mL	99.8%
COc1ccc(/C=C/C(=O)c2cccc(O)c2)cc1	9.4%	–	41.2%	–	99.1%	2.1%	63.3%	–	99%
COc1ccc(C(=O)/C=C/c2ccc3c(c2)OCO3)c(OC)c1	2.4%	62.4%	66.2%	52%	70.4%	51.9%	69.2%	2.43 µg/mL (≈ 7.78 µM)	92.7%
